Here are results for 2 compounds from patent US20160000737A1, “TREATMENT OF PETS WITH SIRTUIN ACTIVATORS” (NUSIRT SCIENCES, INC., priority 2013, published 2016).

Marks after values point to notes of the source that are not given here.

The nature of series [1]: Circulating level after dosing. Format: in vivo.
The subject of series [2] is diet-induced obese mice. Put plainly: Diet-induced obese mice on resveratrol/HMB/leucine diets: body weight, weight gain, adiposity. It is filed as in vivo, c57/BL6 mice. The source says:
Six week old male c57/BL6 mice were fed a high-fat diet with fat increased to 45% of energy (Research Diets D12451) for 6 weeks to induce obesity. At the end of this obesity induction period, animals were randomly divided into the following seven different diet treatment groups with 10 animals per group (overall 70 animals) and maintained on these diets for 6 weeks:
Group 1 (labeled “control group”): high-fat diet only (same as in obesity induction period (Research Diets D12451)).
This diet was modified for groups 2 to 7 in the following way:
Group 2 (labeled “low dose resveratrol”): high-fat diet mixed with 12.5 mg resveratrol/kg diet.
Group 3 (labeled “high dose resveratrol”): high-fat diet mixed with 225 mg resveratrol/kg diet.
Group 4 (labeled “low dose HMB”): high-fat diet mixed with 2 g of the calcium salt of hydroxymethylbutyrate, a naturally occurring metabolite of leucine (CaHMB).
Group 5 (labeled “low dose resveratrol plus low dose CaHMB”): high fat-diet mixed with 12.5 mg of resveratrol/kg diet and 2 g CaHMB/kg diet.
Group 6 (labeled “low dose resveratrol plus high dose HMB”): high fat-diet mixed with 12.5 mg of resveratrol/kg diet and 10 g CaHMB/kg diet.
The animals were housed in polypropylene cages at a room temperature of 22±2° C. and regime of 12 h light/dark cycle. The animals had free access to water and their experimental food throughout the experiment. […]

Series [3] deals with diet-induced obese mice. Put plainly: microPET/CT glucose and palmitate uptake. Format: in vivo, c57/BL6 mice. As to conditions: 6 weeks. The procedure: at the end of the treatment period (6 weeks of treatment) subgroups of each treatment diet group (5 animals/group, 35 animals total) were used to measure whole body glucose and palmitate uptake via PET/CT Imaging. To visualize these compounds using microPET imaging, the glucose or palmitate was labeled with fluorine-18 (108 mins half life) or carbon-11 (20 mins half life), respectively. Each mouse was fasted for 4 hours, then anesthetized using 1-3% isoflurane delivered by nose cone or in a mouse-sized induction chamber purpose-built for small animal imaging protocols. While under anesthesia the mice were injected iv with <2 mCi of each tracer, then be left for a period of time (minutes to up˜1 hour) to allow the uptake of the tracer. During the scan, mice were kept warm using a thermostatically controlled heated bed and were treated with ophthalmic ointment prior to scanning Following the live scan the mice were returned to their cage and revived. Mice were monitored constantly during this time. Following live data acquisition the mice were sacrificed by isoflurane overdose and organs harvested for further experiments.

The subject of series [4] is diet-induced obese mice. Put plainly: Oxygen consumption/substrate utilization in metabolic chambers (CLAMS). Format: in vivo, c57/BL6 mice. How it is done: at the end of the obesity induction period (day 0 of treatment group) and at 2 weeks and 6 weeks of treatment, oxygen consumption and substrate utilization was measured via metabolic chambers using the Comprehensive Lab Animal Monitoring Systems (CLAMS, Columbus Instruments, Columbus, Ohio) in subgroups of each treatment group. Each animal was placed in individual cages without bedding that allow automated, non-invasive data collection. Each cage is an indirect open circuit calorimeter that provides measurement of oxygen consumption, carbon dioxide production, and concurrent measurement of food intake. All mice were acclimatized to the chambers for 24 hours prior to the experiment and maintained under the regular 12:12 light:dark cycle with free access to water and food. All experiments were started in the morning and data were collected for 24 hours. Each chamber was passed with 0.61 of air/min and was sampled for 2 min at 32-minute intervals. Exhaust O2 and CO2 content from each chamber was compared with ambient O2 and CO2 content. Food consumption was measured by electronic scales.

Series [5] concerns diet-induced obese mice. Put plainly: Indices of insulin sensitivity (plasma glucose, insulin, HOMAIR). Format: in vivo, c57/BL6 mice. As to conditions: resveratrol at either dose, HMB, each alone. How it is done:
Insulin sensitivity can be measured using a variety of techniques, including HOMAIR. HOMAIR, which is the homeostasis model assessment of insulin resistance can be used as a screening index of changes in insulin sensitivity. HOMAIR can be calculated via standard formula from fasting plasma insulin and glucose as follows: HOMAIR=[Insulin (uU/mL)×glucose (mM)]/22.5.
(§1) The animals were housed in polypropylene cages at a room temperature of 22±2° C. and regime of 12 h light/dark cycle. The animals had free access to water and their experimental food throughout the experiment. At the of the treatment period (6 weeks) all animals were humanely euthanized, and blood and tissues collected for further experiments.

The next series addresses T1, SIRT1 (Mus musculus, UniProt Q923E4).
T1 construct: effects of dietary treatments on adipose tissue Sirt1 activity; from tissue; host or cells: mouse adipose tissue
T1 sequence (Q923E4 1-737): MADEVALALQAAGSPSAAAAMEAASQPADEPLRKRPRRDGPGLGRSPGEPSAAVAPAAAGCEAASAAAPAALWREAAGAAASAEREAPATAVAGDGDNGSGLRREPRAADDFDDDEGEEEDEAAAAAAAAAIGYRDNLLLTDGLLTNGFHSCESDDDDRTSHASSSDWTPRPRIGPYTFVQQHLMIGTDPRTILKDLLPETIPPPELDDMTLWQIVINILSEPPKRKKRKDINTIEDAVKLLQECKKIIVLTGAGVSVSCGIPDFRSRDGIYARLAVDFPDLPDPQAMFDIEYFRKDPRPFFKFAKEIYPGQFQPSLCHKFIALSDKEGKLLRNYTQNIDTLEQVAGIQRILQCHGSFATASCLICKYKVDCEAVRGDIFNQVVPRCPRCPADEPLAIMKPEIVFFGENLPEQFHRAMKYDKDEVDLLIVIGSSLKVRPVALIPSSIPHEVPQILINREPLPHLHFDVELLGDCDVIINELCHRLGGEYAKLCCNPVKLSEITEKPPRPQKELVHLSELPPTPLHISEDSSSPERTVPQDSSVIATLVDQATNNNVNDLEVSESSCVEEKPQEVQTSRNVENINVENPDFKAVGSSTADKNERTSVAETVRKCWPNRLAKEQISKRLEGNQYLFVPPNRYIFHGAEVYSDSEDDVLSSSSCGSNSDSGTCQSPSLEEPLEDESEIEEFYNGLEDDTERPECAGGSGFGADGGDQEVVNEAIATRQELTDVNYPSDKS
Put plainly: Adipose tissue SIRT1 activity (SIRT1 Fluorimetric Drug Discovery Kit). It is filed as in vivo, c57/BL6 mice. The procedure:
SIRT1 activity was measured by using the SIRT1 Fluorimetric Drug Discovery Kit (BML-AK555, ENZO Life Sciences International, Inc. PA, USA). In this assay, SIRT1 activity is assessed by the degree of deacetylation of a standardized substrate containing an acetylated lysine side chain. The substrate utilized is a peptide containing amino acids 379-382 of human p53 (Arg-His-Lys-Lys[Ac]), an established target of SIRT1 activity; SIRT1 activity is directly proportional to the degree of deacetylation of Lys-382. Samples were incubated with peptide substrate (25 μM), and NAD^+ (500 μM) in a phosphate-buffered saline solution at 37° C. on a horizontal shaker for 45 minutes. The reaction was stopped with the addition of 2 mM nicotinamide and a developing solution that binds to the deacetylated lysine to form a fluorophore. Following 10 minutes incubation at 37° C., fluorescence was read in a plate-reading fluorometer at an excitation wavelength of 360 nm and an emission wavelength of 450 nm. Resveratrol ([…]) served as a SIRT1 activator and suramin sodium (25 mM) as a SIRT1 inhibitor; wells including each were utilized as positive and negative controls in each set of reactions. A standard curve was constructed using deacetylated substrate (0-10 μM). Data was normalized to cellular protein concentration measured via BCA-assay.

Series [6] concerns inflammatory biomarkers (C-reactive protein, IL-6, MCP-1, adiponectin). Put plainly: Inflammatory biomarkers in diet-induced obese mice. It is filed as in vivo, c57/BL6 mice. Particulars: for Adiponectin / C-reactive protein / IL-6 / MCP-1: 6 weeks. How it is done: as §1
Where [7] appears, read: high dose: 225 mg resveratrol/kg diet.
The mark [8] stands for this setting: low dose: 12.5 mg resveratrol/kg diet.

With `CC(C)C[C@H](N)C(=O)O` [leucine, L-leucine], the “circulating level of leucine” value was “about 0.25 mM” in series [1] (dosing of about 60 mg leucine, subject weighing about 30 lb); “about 0.5 mM” in series [1] (dosing of about 225 mg leucine, subject weighing about 30 lb); “about 0.25 mM” in series [1] (dosing of about 300 mg leucine, subject weighing about 150 lb); “about 0.5 mM” in series [1] (dosing of about 1,125 mg leucine, subject weighing about 150 lb).

As for `Oc1ccc(/C=C/c2cc(O)cc(O)c2)cc1` [Resveratrol, 3,5,4′-Trihydroxy-trans-stilbene], in the series with diet-induced obese mice [2] (high dose resveratrol), the “effect on body weight, weight gain, or visceral adipose tissue mass” value was “no significant effect”. In addition, the “effect on body weight, weight gain, visceral adipose tissue mass, fat oxidation, respiratory exchange ratio (RER), or heat production” value in the series with diet-induced obese mice [2] (low doses, each alone) was “no significant independent effect”. Further, the “Muscle Glucose Uptake (18F-deoxyglucose SUV)” value in the series with diet-induced obese mice [3] (setting [7]) is listed as 3.87 ± 0.32^a SUV; with diet-induced obese mice [3] (setting [8]) it was 3.63 ± 1.29^a SUV. Besides, the RER entry in the series with diet-induced obese mice [4] (high dose of resveratrol) is on record as “decreased”. Also, in the series on diet-induced obese mice [4] (high dose of resveratrol), the “heat production and skeletal muscle fat oxidation” value is listed as “significantly increased”. In addition, the “Respiratory Exchange Ratio (24 hr RER)” value is 0.825 ± 0.007^b in the series on diet-induced obese mice [4] (setting [7]) and 0.847 ± 0.008^a with diet-induced obese mice [4] (setting [8]). Further, the “effect on plasma insulin or on muscle glucose uptake” value in the series with diet-induced obese mice [5] is on record as “Neither resveratrol at either dose nor HMB exerted any significant effect”. Besides, the entries for the “adipose tissue Sirt1 activity” value at SIRT1 (high dose resveratrol) and on SIRT1 (resveratrol or HMB alone) were “non-significant trend towards an increase” and “Neither resveratrol nor HMB exerted significant independent effects”, respectively. Also, the “effect on MCP-1 or c-reactive protein” value in series [6] (HMB or low dose of resveratrol alone) is “neither HMB nor a low dose of resveratrol exerted any effect”. The “circulating IL-6” value is “significantly reduced” in series [6] (high dose of resveratrol) and “no independent effect” in series [6] (low dose of resveratrol alone). The results for the Adiponectin in series [6] (setting [7]) and in series [6] (setting [8]) were 14.8 ± 1.8^b ng/mL and 12.4 ± 1.1 ng/mL, respectively. Moreover, the C-reactive protein in series [6] (setting [7]) is listed as 123.9 ± 35.3^a ng/mL; in series [6] (setting [8]), 134.8 ± 8.5^a ng/mL. For the same compound, the values for the IL-6 in series [6] (setting [7]) and in series [6] (setting [8]) were 14.1 ± 1.3^b pg/mL and 23.2 ± 2.9^a pg/mL, respectively. For the same compound, the MCP-1 in series [6] (setting [7]) was 27.3 ± 6.8^b pg/mL; in series [6] (setting [8]), 104.4 ± 16.5^a pg/mL. The “circulating level of resveratrol” value in series [1] (oral dosing of about 10 mg, subject about 30 lb) is recorded as “about 200 nM”; in series [1] (oral dosing of about 50 mg, subject about 150 lb), “about 200 nM”; in series [1] (oral dosing of about 220 mg, subject about 30 lb) it was “about 0.5 mM”; in series [1] (oral dosing of about 1100 mg, subject about 150 lb), “about 0.5 mM”.
